Test results published in ChEMBL document CHEMBL3808381, “Structural Requirements and Docking Analysis of Amidine-Based Sphingosine Kinase 1 Inhibitors Containing Oxadiazoles” (ACS Med Chem Lett, 2016).

Key:
Sphingosine kinase 1 = Sphingosine kinase 1 (Homo sapiens, UniProt Q9NYA1); assay: Inhibition of human SphK1 expressed in baculovirus infected in Sf9 cells using D-erythro-sphingosine as substrate and [gamma-32P]ATP by scintillation counting method
Sphingosine kinase 2 = biological target: T1, Sphingosine kinase 2 (Homo sapiens, UniProt Q9NRA0); assay: Inhibition of human SphK2 expressed in baculovirus infected in Sf9 cells using D-erythro-sphingosine as substrate and [gamma-32P]ATP by scintillation counting method
T1 sequence (Q9NRA0 whole entry): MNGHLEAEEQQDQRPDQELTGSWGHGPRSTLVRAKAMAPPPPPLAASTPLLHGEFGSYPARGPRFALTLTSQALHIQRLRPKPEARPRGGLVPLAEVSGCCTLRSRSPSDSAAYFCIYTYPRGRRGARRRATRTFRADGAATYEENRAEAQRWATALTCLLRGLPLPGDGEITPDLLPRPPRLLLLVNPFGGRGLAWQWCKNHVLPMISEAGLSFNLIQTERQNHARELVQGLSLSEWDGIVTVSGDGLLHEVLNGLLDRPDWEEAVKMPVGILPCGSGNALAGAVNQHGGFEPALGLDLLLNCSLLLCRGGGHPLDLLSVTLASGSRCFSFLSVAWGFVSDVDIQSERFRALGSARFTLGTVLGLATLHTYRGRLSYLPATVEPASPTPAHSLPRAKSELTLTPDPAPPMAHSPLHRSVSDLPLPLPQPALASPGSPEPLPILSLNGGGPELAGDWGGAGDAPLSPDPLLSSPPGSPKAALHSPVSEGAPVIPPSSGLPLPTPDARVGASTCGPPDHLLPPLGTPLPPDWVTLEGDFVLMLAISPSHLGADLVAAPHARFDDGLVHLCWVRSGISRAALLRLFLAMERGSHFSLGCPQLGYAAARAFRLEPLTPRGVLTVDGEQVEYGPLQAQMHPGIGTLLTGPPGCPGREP

Sequence of Sphingosine kinase 1 (Q9NYA1 whole entry): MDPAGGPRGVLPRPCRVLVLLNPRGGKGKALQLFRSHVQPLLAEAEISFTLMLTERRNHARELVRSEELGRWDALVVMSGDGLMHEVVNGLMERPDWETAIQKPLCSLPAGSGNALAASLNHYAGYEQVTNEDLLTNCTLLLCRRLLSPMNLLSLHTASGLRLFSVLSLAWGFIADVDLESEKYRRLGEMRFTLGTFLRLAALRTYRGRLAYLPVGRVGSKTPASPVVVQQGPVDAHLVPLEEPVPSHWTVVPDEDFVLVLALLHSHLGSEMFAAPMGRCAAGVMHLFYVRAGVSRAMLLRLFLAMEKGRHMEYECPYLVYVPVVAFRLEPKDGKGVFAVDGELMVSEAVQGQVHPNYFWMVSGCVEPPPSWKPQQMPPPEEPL

| SMILES | Ki (Sphingosine kinase 1) | Ki (Sphingosine kinase 2) |
| --- | --- | --- |
| CCCCCCCCCCCCc1ccc(-c2noc(C3(C(=N)N)CC3)n2)cc1 | 0.32 µM | 6 µM |
| CCCCCCCCCCCCc1cccc(-c2noc(C3(C(=N)N)CC3)n2)c1 | 0.04 µM | 14.1 µM |
| CCCCCCCCCCCCCc1ccc(-c2noc(C3(C(=N)N)CC3)n2)cc1 | 2.5 µM | 11 µM |
| CCCCCCCCCCCc1cccc(-c2noc(C3(C(=N)N)CC3)n2)c1 | 0.07 µM | 9.9 µM |
